SMILES strings stand for the structures.

In data set [1] the target is 5-hydroxytryptamine receptor 2A (Homo sapiens, UniProt P28223). Put plainly: Antagonist activity at 5-HT2A receptor (unknown origin) assessed as decrease in intracellular calcium flux preincubated with calcium followed by compound challenge and measured after 10 mins by FLIPR method. In kind it is functional, cell-based. For orientation: Calcium flux is commonly read through the fluorescence of an indicator in the cells.

Another data set relates to Mus musculus. Put plainly: Antipsychotic activity in ICR mouse assessed as reduction of PCP induced hyperactivity at 3 mg/kg, ig pretreated with compound for 30 mins followed by PCP challenge for 10 mins and measured after 60 mins. In kind it is functional. Particulars: po, 1.667 h, time 100 min.
Another data set concerns the target D(2) dopamine receptor (Homo sapiens, UniProt P14416). Put plainly: Antagonist activity at D2 receptor (unknown origin) preincubated for 60 mins followed by addition of Eu-cAMP and measured after 60 mins by plate reader method. In kind it is functional.
In data set [2] the target is T1, 5-hydroxytryptamine receptor 1A (Homo sapiens, UniProt P08908).
T1 sequence (P08908 whole entry): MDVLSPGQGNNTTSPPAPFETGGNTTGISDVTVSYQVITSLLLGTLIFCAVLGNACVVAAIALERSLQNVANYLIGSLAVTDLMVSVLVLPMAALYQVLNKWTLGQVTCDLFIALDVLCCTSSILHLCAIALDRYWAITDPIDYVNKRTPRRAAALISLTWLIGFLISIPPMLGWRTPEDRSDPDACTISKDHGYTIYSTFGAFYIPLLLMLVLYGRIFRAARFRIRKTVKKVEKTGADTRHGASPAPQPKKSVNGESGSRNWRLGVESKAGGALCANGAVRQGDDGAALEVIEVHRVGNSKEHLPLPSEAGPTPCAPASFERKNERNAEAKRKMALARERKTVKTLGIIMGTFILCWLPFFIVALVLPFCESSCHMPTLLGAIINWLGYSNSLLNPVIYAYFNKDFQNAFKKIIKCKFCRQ
Put plainly: Agonist activity at 5-HT1A receptor (unknown origin) preincubated for 60 mins followed by addition of Eu-cAMP and measured after 60 mins by plate reader method. In kind it is functional.

Data set [3] can be described thus: Toxicity in ICR mouse assessed as induction of sedation by measuring spontaneous locomotor activity at 0.3 to 3 mg/kg, po measured for 30 mins following drug administration. The format is organism-based. Particulars: in vivo, 0.5 h, dose 0.3-3 mg/kg.
A short description of data set [4]: Toxicity in ICR mouse assessed as induction of catalepsy at 1 mg/kg, po. In kind it is organism-based. Particulars: in vivo.

5-hydroxytryptamine receptor 2A, sequence (P28223 whole entry): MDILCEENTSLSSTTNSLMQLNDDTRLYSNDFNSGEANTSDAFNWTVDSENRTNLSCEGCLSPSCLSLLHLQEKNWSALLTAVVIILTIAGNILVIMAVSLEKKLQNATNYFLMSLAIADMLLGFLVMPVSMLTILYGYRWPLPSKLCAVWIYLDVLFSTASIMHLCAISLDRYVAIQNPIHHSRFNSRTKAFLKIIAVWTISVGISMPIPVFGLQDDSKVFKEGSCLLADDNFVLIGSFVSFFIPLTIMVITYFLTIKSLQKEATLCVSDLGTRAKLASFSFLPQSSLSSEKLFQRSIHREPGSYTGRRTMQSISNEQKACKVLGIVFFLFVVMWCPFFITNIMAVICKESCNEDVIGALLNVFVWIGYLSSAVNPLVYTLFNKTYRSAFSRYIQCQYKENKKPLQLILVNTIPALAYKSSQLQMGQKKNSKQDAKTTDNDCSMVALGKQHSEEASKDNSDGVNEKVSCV
D(2) dopamine receptor, sequence (P14416 whole entry): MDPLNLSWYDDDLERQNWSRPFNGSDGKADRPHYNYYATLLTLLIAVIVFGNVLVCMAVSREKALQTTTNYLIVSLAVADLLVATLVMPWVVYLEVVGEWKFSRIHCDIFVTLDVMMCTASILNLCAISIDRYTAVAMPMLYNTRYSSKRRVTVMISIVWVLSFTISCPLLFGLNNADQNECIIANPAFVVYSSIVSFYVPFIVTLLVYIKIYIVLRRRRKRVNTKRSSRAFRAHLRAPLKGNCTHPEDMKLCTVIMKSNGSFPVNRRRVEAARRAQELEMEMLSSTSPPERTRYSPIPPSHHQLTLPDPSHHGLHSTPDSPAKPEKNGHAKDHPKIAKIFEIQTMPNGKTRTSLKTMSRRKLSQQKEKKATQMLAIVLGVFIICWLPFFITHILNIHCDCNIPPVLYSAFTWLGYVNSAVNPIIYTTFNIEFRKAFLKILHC

In the case of `Nc1ccc2c(c1)N(CCCCN1CCN(c3cccc4sccc34)CC1)S(=O)(=O)CC2`, the IC50 in data set [1] (read-out: pIC50 (converted)) is 2.82 nM; on D(2) dopamine receptor, 67.6 nM. Further, in the data set with Mus musculus, the inhibition in vivo (as a rule, the percentage by which the read-out fell short of the control) at 3 mg/kg was found to be 48%. Also, in data set [2] (read-out: pEC50 (converted)), the EC50 is 0.794 nM.

With `O=c1[nH]c(=O)n(CCCCN2CCN(c3cccc4sccc34)CC2)c2ccccc12`, the Activity entry in data set [3] and in data set [4] was “Non-Toxic” in each case. Also, in data set [1] (read-out: pIC50 (converted)), the IC50 is 129 nM. Further, in data set [2] (read-out: pEC50 (converted)), the EC50 is 3.39 nM.

As to `O=C1CCc2ccc(OCCCCN3CCN(c4cccc(Cl)c4Cl)CC3)cc2N1` [ARIPIPRAZOLE], the inhibition in vivo at 3 mg/kg in the data set on Mus musculus was 54%.

Consider `CN1CC(=O)N(CCCCN2CCN(c3cccc4sccc34)CC2)c2ccccc2C1=O`, for which the IC50 in data set [1] (read-out: pIC50 (converted)) was 42.7 nM; against D(2) dopamine receptor, 123 nM. In addition, the inhibition in vivo at 3 mg/kg with Mus musculus stood at 15%. In addition, in data set [2] (read-out: pEC50 (converted)), the EC50 was 11 nM.

As for `O=C1COc2ccccc2N1CCCCN1CCN(c2cccc3sccc23)CC1`, in data set [1] (read-out: IC50), the IC50 is 1.64 nM. In addition, in the data set with Mus musculus, the inhibition in vivo at 3 mg/kg worked out at 39%. The EC50 in data set [2] (read-out: EC50) came to 0.51 nM.

Turning to `O=C1NCC(=O)N(CCCCN2CCN(c3cccc4sccc34)CC2)c2cc(F)ccc21`, the IC50 in data set [1] (read-out: pIC50 (converted)) is 24.5 nM; against D(2) dopamine receptor, 34.7 nM. For the same compound, in the data set on Mus musculus, the inhibition in vivo at 3 mg/kg is 43%. For the same compound, the EC50 in data set [2] (read-out: pEC50 (converted)) is 4.07 nM.

As for `COc1ccc2ncc(=O)n(CCCCN3CCN(c4cccc5sccc45)CC3)c2c1`, the IC50 in data set [1] (read-out: pIC50 (converted)) was 20.9 nM. Moreover, the EC50 in data set [2] (read-out: pEC50 (converted)) is 2.69 nM.

Consider `O=S1(=O)CCc2ccc(O)cc2N1CCCCN1CCN(c2cccc3sccc23)CC1`, for which the IC50 in data set [1] (read-out: pIC50 (converted)) was 18.6 nM; at D(2) dopamine receptor, 20 nM. Besides, the inhibition in vivo at 3 mg/kg in the data set with Mus musculus worked out at 13%. Also, the EC50 in data set [2] (read-out: pEC50 (converted)) is 1.12 nM.

Source of the values: ChEMBL document CHEMBL4706522, “Automated design and optimization of multitarget schizophrenia drug candidates by deep learning” (Eur J Med Chem, 2020).
